Experimental data as given in patent US7262003B2, “Plant test procedure to detect natural, semi-synthetic, synthetic compounds and physical stress factors through expression of distinct responses” (Council of Scientific and Industrial Research, priority 1998, dated 2007).
Entries after “also recorded” stand apart in the source; their conditions may differ. Read-outs that look alike come from different tables or passages of the source.

Key:
Bacopa root tips = assay type: in vivo, Bacopa monnieri
[1] = tested on: Bacopa monnieri twig cuttings; assay type: in vivo
Bacopa cultures = details: in vivo; cited from earlier work
Bacopa monnieri twigs [2] = assay: Cytotoxic/weedicidal effect: menthol in medium and Mentha arvensis oil sprayed on twigs; assay type: in vivo; details: menthol added to the medium and oil sprayed on the twigs
Protocol: We also planned the experiments to determine if this procedure can depict a clear cut manifestation of cytotoxic/weedicidal effect of compounds. For this purpose we used a known essential oil of Mentha arvensis, which is rich in the toxic but useful component, menthol as the treatment. The procedure involved was same as in the above examples with the exception that menthol was added to the medium and oil was sprayed on these twigs which were inoculated into the medium. […] Refer to FIG. #4 of Sheet #2.

[3] = tested on: Avocado cv. Verde in vitro; details: antibiotic in the plant growth medium; cited from earlier work
[4] = tested on: regenerants of Bacopa monniera; details: cited from earlier work
[5] = tested on: Bacopa monnieri leaf, internode and twig cuttings; assay: Response of leaf, internode and twig cutting explants to growth promoters (auxins, cytokinins) in MS 0 medium; assay type: in vivo; details: for Response observed, Cutting: MS 0 medium containing 1.0 mg/litre; for Response observed, Cutting / Response observed, Internode / Response observed, Leaf: recorded up to two weeks; for Response of leaf, internode and cuttings: MS 0 supplemented at 0.5 and 1.0 mg/litre
Protocol: Initially the experiments were designed to observe the response of leaf, internode and cuttings against growth promoters (auxins: 2,4-D & Indole acetic acid) and […] (cytokinins: 6-Benzyl amino purine & kinetin). The basal medium for studying the response was MS 0 (Murashige T and Skoog F, 1962, Physiol. Planta. 15: 473–497) supplemented with these growth regulators at the rates of 0.5 and 1.0 mg/litre along with a control of just the basal medium.
The basal medium for studying the response was MS 0 (Murashige T and Skoog F, 1962, Physiol. Planta. 15: 473–497) supplemented with test compounds along with a control of just the basal medium. Measured 0.5 ml medium was poured into 1.5 ml graduated microcentrifuge tubes. Into this, twig cutting of 2.5 cm were inoculated in 20 replicates for each type of medium. These inoculated tubes were put into a half transparent (top lid) box allowing air passage through sterile cotton plugs such that the medium containing portion of the tubes where roots would be initiating is inserted into the stand holes made from a thermocol sheet. Refer FIG. 1 of Sheet #1. […] Such boxes were incubated at normal ambient temperature of 25–28° C. with 14 hours light and 10 hours dark cycle.
To find out the effect of growth promoters such as Indole 3 acetic acid (IAA), 2,4-Dichlorophenoxy acetic acid (2,4-D), and cytokinins such as 6-Benzyl Amino Purine (6-BAP) and Kinetin, the leaf, internode and twig cuttings were inoculated into MS 0 medium containing […] of the above said compounds and the responses were recorded up to two weeks in terms of rooting, callusing and shoot regeneration (Table 1).

Bacopa monnieri twigs [6] = assay: Growth inhibitor test on twigs in basal MS media; assay type: in vivo; details: after 10 days of inoculation
Protocol: The basal medium for studying the response was MS 0 (Murashige T and Skoog F, 1962, Physiol. Planta. 15: 473–497) supplemented with test compounds along with a control of just the basal medium. Measured 0.5 ml medium was poured into 1.5 ml graduated microcentrifuge tubes. Into this, twig cutting of 2.5 cm were inoculated in 20 replicates for each type of medium. These inoculated tubes were put into a half transparent (top lid) box allowing air passage through sterile cotton plugs such that the medium containing portion of the tubes where roots would be initiating is inserted into the stand holes made from a thermocol sheet. Refer FIG. 1 of Sheet #1. This set up was helpful in preventing the light exposure to the root portion while at the same time aerial parts got sufficient light and aeration. Such boxes were incubated at normal ambient temperature of 25–28° C. with 14 hours light and 10 hours dark cycle. […] The earliest response was seen was on day 3 in the case of medium containing ¼th level of nitrogen followed by medium containing normal level of nitrogen, while in the case of zero nitrogen, initiation was observed only after 8 days. Thus, the medium with ¼ nitrogen level of standard MS basal medium was selected for root assays and was referred as MSR (rooting) medium.
The effects of growth inhibitors were also tested using the protocol as described in Example 1. […]

[7] = 10 and 100 μg/ml in MSR, up to day 15
[8] = concentrations ranging from 1 to 100 μg/ml, 14 days

## CC(=O)O[C@H]1C(=O)[C@@]2(C)[C@H]([C@H](OC(=O)c3ccccc3)[C@]3(O)C[C@H](OC(=O)[C@H](O)[C@@H](NC(=O)c4ccccc4)c4ccccc4)C(C)=C1C3(C)C)[C@]1(OC(C)=O)CO[C@@H]1C[C@@H]2O [Taxol, taxol]
Bacopa root tips; 10 μg/ml
  Effect on mitotic index (words): significantly reduce the mitotic index
  Reduction of mitotic index compared to untreated control samples: 2.55 fold
Bacopa root tips; 10 μg/ml, dipping 3 hours
  Number of cells in phase Ana: 01
  Number of cells in phase Meta: 03
  Number of cells in phase Pro: 01
  Number of cells in phase Telo: 00
Bacopa root tips; 10 μg/ml, dipping 3 hours, 10 randomly selected fields
  Mitotic Index: 7.14 ± 1.52
Bacopa root tips; 10 μg/ml, listed as taxol
  Effect on mitotic index (words): substantial reduction in the mitotic index
Bacopa root tips; 100 μg/ml
  Cell division in the root tips: inhibited almost complete cell division
[1]; [7]
  Root initiation: inhibited the complete root initiation
  Visible effect on the aerial parts: wilting of the leaves
[1]; [8]
  Root initiation: did not initiate the roots at all
  Shoot growth and health: no shoot growth; also recorded: wilting and later withering

## [Cl][Al]([Cl])[Cl] [AlCl3]
Bacopa cultures
  Concentration beyond which Bacopa cultures could not survive: 400 µM

## CC1CCC(C(C)C)C(O)C1 (centres unmarked) [menthol]
Bacopa monnieri twigs [2]
  Spread of chlorophyll loss: within a week time covered whole twig

## O=C(N[C@H](CO)[C@H](O)c1ccc([N+](=O)[O-])cc1)C(Cl)Cl [chloramphenicol]
[3]
  Toxicity to avocado (length of sprouts reduced): toxic

## [H]/N=C(/N)N[C@H]1[C@H](O)[C@@H](O)[C@H](O[C@@H]2O[C@@H](C)[C@](O)(C=O)[C@H]2O[C@@H]2O[C@@H](CO)[C@H](O)[C@@H](O)[C@@H]2NC)[C@@H](N/C(N)=N\[H])[C@@H]1O [streptomycin]
[3]
  Toxicity to avocado (length of sprouts reduced): toxic

## [Cd] [Cd, cadmium]
[4]; grown with additional supply of Cu
  Concentration tolerated: up to 100 μM
[4]; in vivo
  Concentration beyond which regenerants did not survive: 50 µM

## c1coc(CNc2ncnc3[nH]cnc23)c1 [Kinetin]
[5]
  Response observed, Cutting: Root Initiation and Root
[5]; MS 0 medium containing 1 mg/ml
  Response observed, Internode: No Response
  Response observed, Leaf: Root Initiation

## c1ccc(CNc2ncnc3nc[nH]c23)cc1 [BAP, 6-Benzyl Amino Purine]
[5]
  Response observed, Cutting: Root Initiation and Root
  Response of leaf, internode and cuttings: green callus developed in all three explants followed by shoot regeneration
[5]; MS 0 medium containing 1 mg/ml
  Response observed, Internode: Callus Initiation; also recorded: Shoot
  Response observed, Leaf: Callus Initiation; also recorded: Shoot
[5]; MS 0 medium containing 1 mg/ml, up to two weeks
  Response of leaf and internodal explant: green callus has formed, followed by shoot regeneration

## O=C(O)COc1ccc(Cl)cc1Cl [2,4-D, 2,4-Dichlorophenoxy acetic acid]
[5]
  Response observed, Cutting: Aerial Root
  Response of leaf, internode and cuttings: small thick roots got initiated at the internodes
[5]; MS 0 medium containing 1 mg/ml
  Response observed, Internode: Root Initiation; also recorded: Root Thickening; also recorded: Explant Swelling
  Response observed, Leaf: Root Initiation; also recorded: Root Thickening; also recorded: Callus Initiation

## O=C(O)Cc1c[nH]c2ccccc12 [IAA, Indole 3 acetic acid]
[5]
  Response observed, Cutting: Aerial Root
  Response of leaf, internode and cuttings: profuse rooting
[5]; MS 0 medium containing 1 mg/ml
  Response observed, Internode: Root Initiation
  Response observed, Leaf: Root Initiation

## CCn1cc(C(=O)O)c(=O)c2ccc(C)nc21 [nalidixic acid, Nalidixic acid]
[3]
  Toxicity to avocado (length of sprouts reduced): toxic
Bacopa monnieri twigs [6]; 10 μg/ml
  Root initiation and growth: roots got initiated from the submerged nodes but their growth was less than the control
Bacopa monnieri twigs [6]; 100 μg/ml
  Root initiation and growth: very small roots arose from submerged node and their growth was completely arrested
